Data as given in the Kinase Knowledgebase extract (Sharma et al. 2016).

Biological target: PIK3CD (Human) (UniProt O00329)
Assay: Assessment of PIK3CD Kinase Activity

Chain of PIK3CD (Human) (O00329 whole entry, looked up): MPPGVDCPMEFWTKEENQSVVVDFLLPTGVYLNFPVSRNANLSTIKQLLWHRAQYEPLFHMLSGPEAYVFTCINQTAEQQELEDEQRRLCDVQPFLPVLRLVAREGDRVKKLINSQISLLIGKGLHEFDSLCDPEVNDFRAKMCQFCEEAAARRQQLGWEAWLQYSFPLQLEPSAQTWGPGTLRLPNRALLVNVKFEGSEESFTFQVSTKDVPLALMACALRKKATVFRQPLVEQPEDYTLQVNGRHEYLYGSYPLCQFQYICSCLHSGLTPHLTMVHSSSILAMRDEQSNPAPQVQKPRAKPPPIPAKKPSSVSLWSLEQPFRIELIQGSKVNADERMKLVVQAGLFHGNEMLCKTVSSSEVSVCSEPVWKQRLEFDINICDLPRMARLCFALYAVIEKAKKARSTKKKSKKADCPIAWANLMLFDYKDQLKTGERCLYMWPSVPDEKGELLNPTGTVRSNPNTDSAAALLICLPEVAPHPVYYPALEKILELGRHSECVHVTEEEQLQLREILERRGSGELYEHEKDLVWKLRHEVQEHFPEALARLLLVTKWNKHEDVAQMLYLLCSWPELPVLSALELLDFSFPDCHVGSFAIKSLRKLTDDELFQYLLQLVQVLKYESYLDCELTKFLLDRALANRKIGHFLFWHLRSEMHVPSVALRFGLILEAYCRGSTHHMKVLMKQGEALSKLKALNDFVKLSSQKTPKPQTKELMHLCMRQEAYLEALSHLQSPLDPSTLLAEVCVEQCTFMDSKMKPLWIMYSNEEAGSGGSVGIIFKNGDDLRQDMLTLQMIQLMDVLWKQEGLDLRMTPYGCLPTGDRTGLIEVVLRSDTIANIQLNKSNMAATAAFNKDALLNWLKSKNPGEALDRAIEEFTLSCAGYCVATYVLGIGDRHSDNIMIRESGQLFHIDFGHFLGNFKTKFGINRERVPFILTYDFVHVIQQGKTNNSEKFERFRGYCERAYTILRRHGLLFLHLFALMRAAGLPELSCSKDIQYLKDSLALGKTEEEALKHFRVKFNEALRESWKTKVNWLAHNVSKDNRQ

Row | SMILES | IC50
1 | CCCn1cc(-c2nc3c(N4CCC(n5c(=O)[nH]c6ccccc65)CC4)ncnc3n2CC)cn1 | < 50 nM
2 | Cc1ccc(-n2ncc3c2CCN(c2ncnc4c2nc(C(=O)NCC2CC2)n4C)C3)c(C)c1 | 500 to 1500 nM
3 | Cn1c(C(=O)NCC2CC2)nc2c(N3CCc4c(cnn4-c4ccccc4)C3)ncnc21 | 250 to 500 nM
4 | CC1CN(c2ncnc3c2nc(C(=O)NCC2CC2)n3C)CCC1n1c(=O)[nH]c2ccccc21 (centres undefined) | 50 to 250 nM
5 | Cn1c(-c2cn[nH]c2)nc2c(N3CCC(n4c(=O)[nH]c5ccccc54)CC3)ncnc21 | < 50 nM
6 | Cc1ccccc1-n1ncc2c1CCN(c1ncnc3c1nc(C(=O)NCC1CC1)n3C)C2 | 500 to 1500 nM
7 | CN(C)c1ccc(-c2nc3c(N4CCC(n5c(=O)[nH]c6ccccc65)CC4)ncnc3n2C)cn1 | < 50 nM
8 | CCn1c(-c2cn[nH]c2)nc2c(N3CCC(n4c(=O)[nH]c5ccccc54)CC3)ncnc21 | < 50 nM
9 | COc1ccc(S(=O)(=O)N2CCN(c3ncnc4c3nc(-c3cnn(C)c3)n4C)CC2)cc1 | 500 to 1500 nM
10 | CN(C)C1CN(C(=O)c2nc3c(N4CCC5(CC4)C(=O)NCN5c4ccccc4)ncnc3n2C)C1 | 500 to 1500 nM
11 | Cn1c(C(=O)NCC2CC2)nc2c(N3CCC(n4c(N)nc5ccccc54)CC3)ncnc21 | 50 to 250 nM
12 | Cn1c(C(=O)NCC2CC2)nc2c(N3CCC(C4C(=O)Nc5ccccc54)CC3)ncnc21 (centres undefined) | 250 to 500 nM
13 | Cc1c(-c2nc3c(N4CCC(n5c(=O)[nH]c6c(F)cccc65)CC4)ncnc3n2C)cnn1C | < 50 nM
14 | Cc1cccc(C)c1-n1ncc2c1CCN(c1ncnc3c1nc(C(=O)NCC1CC1)n3C)C2 | 500 to 1500 nM
15 | COc1cccc2c1[nH]c(=O)n2C1CCN(c2ncnc3c2nc(C(=O)NCC2CC2)n3C)CC1 | 50 to 250 nM
16 | Cn1c(C(=O)NCC2CC2)nc2c(N3CCC(n4c(=O)[nH]c5ccccc54)CC3)ncnc21 | 50 to 250 nM
17 | Cn1c(C(=O)N2CC[C@@H](F)C2)nc2c(N3CCC(n4c(=O)[nH]c5ccccc54)CC3)ncnc21 | 50 to 250 nM
18 | Cc1cccc(-n2ncc3c2CCN(c2ncnc4c2nc(C(=O)NCC2CC2)n4C)C3)c1 | 500 to 1500 nM
19 | CN1CCN(c2cccc3c2[nH]c(=O)n3C2CCN(c3ncnc4c3nc(C(=O)NCC3CC3)n4C)CC2)CC1 | 50 to 250 nM
